Laboratory results reported in ChEMBL document CHEMBL1136174, “Synthesis and antimycobacterial activity of capuramycin analogues. Part 1: substitution of the azepan-2-one moiety of capuramycin” (Bioorg Med Chem Lett, 2003).
Values after ≈ are worked out from the molar mass of the structure shown.

How the values were obtained:
[1] = tested on: Mycolicibacterium smegmatis; test: Antimycobacterial activity against Mycobacterium smegmatis (SANK 75075); assay type: functional
[2] = target: T1, Phospho-N-acetylmuramoyl-pentapeptide-transferase (Escherichia coli K-12, UniProt P0A6W3); test: Inhibitory activity against translocase I
T1 sequence (P0A6W3 whole entry): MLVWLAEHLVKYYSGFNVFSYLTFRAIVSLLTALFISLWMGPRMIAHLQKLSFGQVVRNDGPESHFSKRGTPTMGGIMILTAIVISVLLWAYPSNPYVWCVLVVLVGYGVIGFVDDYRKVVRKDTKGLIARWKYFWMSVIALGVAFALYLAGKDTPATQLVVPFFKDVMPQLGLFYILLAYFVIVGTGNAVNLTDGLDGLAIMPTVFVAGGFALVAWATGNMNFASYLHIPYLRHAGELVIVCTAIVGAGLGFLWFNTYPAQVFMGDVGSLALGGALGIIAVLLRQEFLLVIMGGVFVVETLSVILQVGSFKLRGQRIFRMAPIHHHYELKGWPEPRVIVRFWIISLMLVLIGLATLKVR

Mycobacterium avium = test: Antimycobacterial activity against Mycobacterium avium (NIHJ1605); assay type: functional
[3] = tested on: Mycobacterium intracellulare; test: Antimycobacterial activity against Mycobacterium intracellular (ATCC 1954 E-3); assay type: functional
Mycobacterium kansasii = test: Antimycobacterial activity against Mycobacterium kansasii (ATCC12478); assay type: functional

SMILES | MIC [1] | IC50 [2] | MIC (Mycobacterium avium) | MIC [3] | MIC (Mycobacterium kansasii)
CCCCCCc1ccc(NC(=O)C2=C[C@H](O)[C@H](O)[C@@H](O[C@@H](C(N)=O)[C@H]3O[C@@H](n4ccc(=O)[nH]c4=O)[C@H](O)[C@@H]3OC)O2)cc1 | 12.5 µg/mL (≈ 20.2 µM) | 259 nM |  |  | 
CO[C@H]1[C@@H](O)[C@H](n2ccc(=O)[nH]c2=O)O[C@@H]1[C@@H](O[C@H]1OC(C(=O)Nc2ccccc2OCc2ccccc2)=C[C@H](O)[C@@H]1O)C(N)=O | 25 µg/mL (≈ 39 µM) | 35.9 nM |  |  | 
COc1ccccc1CNC(=O)C1=C[C@H](O)[C@H](O)[C@@H](O[C@@H](C(N)=O)[C@H]2O[C@@H](n3ccc(=O)[nH]c3=O)[C@H](O)[C@@H]2OC)O1 | 50 µg/mL (≈ 86.4 µM) | 484 nM |  |  | 
CO[C@H]1[C@@H](O)[C@H](n2ccc(=O)[nH]c2=O)O[C@@H]1[C@@H](O[C@H]1OC(C(=O)Nc2ccc(F)cc2)=C[C@H](O)[C@@H]1O)C(N)=O | 6.25 µg/mL (≈ 11.3 µM) | 67 nM | 4 µg/mL (≈ 7.24 µM) | 2 µg/mL (≈ 3.62 µM) | 2 µg/mL (≈ 3.62 µM)
CO[C@H]1[C@@H](O)[C@H](n2ccc(=O)[nH]c2=O)O[C@@H]1[C@@H](O[C@H]1OC(C(=O)NCCc2ccc(Cl)cc2Cl)=C[C@H](O)[C@@H]1O)C(N)=O | 50 µg/mL (≈ 79.2 µM) | 30.1 nM |  |  | 
CO[C@H]1[C@@H](O)[C@H](n2ccc(=O)[nH]c2=O)O[C@@H]1[C@@H](O[C@H]1OC(C(=O)NCc2ccc(F)cc2)=C[C@H](O)[C@@H]1O)C(N)=O | 50 µg/mL (≈ 88.3 µM) | 353 nM |  |  | 
CO[C@H]1[C@@H](O)[C@H](n2ccc(=O)[nH]c2=O)O[C@@H]1[C@@H](O[C@H]1OC(C(=O)Nc2ccc(C)cc2C)=C[C@H](O)[C@@H]1O)C(N)=O | 25 µg/mL (≈ 44.4 µM) | 107 nM |  |  | 
CO[C@H]1[C@@H](O)[C@H](n2ccc(=O)[nH]c2=O)O[C@@H]1[C@@H](O[C@H]1OC(C(=O)Nc2ccc(F)cc2F)=C[C@H](O)[C@@H]1O)C(N)=O | 12.5 µg/mL (≈ 21.9 µM) | 26.3 nM |  |  | 
CO[C@H]1[C@@H](O)[C@H](n2ccc(=O)[nH]c2=O)O[C@@H]1[C@@H](O[C@H]1OC(C(=O)N[C@@H](C)c2ccccc2)=C[C@H](O)[C@@H]1O)C(N)=O | 50 µg/mL (≈ 88.9 µM) | 231 nM |  |  | 
CO[C@H]1[C@@H](O)[C@H](n2ccc(=O)[nH]c2=O)O[C@@H]1[C@@H](O[C@H]1OC(C(=O)Nc2ccc(Br)cc2)=C[C@H](O)[C@@H]1O)C(N)=O | 6.25 µg/mL (≈ 10.2 µM) | 32.6 nM | 8 µg/mL (≈ 13 µM) | 0.5 µg/mL (≈ 0.815 µM) | 8 µg/mL (≈ 13 µM)
CNC(=O)C1=C[C@H](O)[C@H](O)[C@@H](O[C@@H](C(N)=O)[C@H]2O[C@@H](n3ccc(=O)[nH]c3=O)[C@H](O)[C@@H]2OC)O1 | > 100 µg/mL | 381 nM |  |  | 
COc1cccc(CCNC(=O)C2=C[C@H](O)[C@H](O)[C@@H](O[C@@H](C(N)=O)[C@H]3O[C@@H](n4ccc(=O)[nH]c4=O)[C@H](O)[C@@H]3OC)O2)c1 | 50 µg/mL (≈ 84.4 µM) | 32.1 nM |  |  | 
CCOCCCNC(=O)C1=C[C@H](O)[C@H](O)[C@@H](O[C@@H](C(N)=O)[C@H]2O[C@@H](n3ccc(=O)[nH]c3=O)[C@H](O)[C@@H]2OC)O1 | 100 µg/mL (≈ 184 µM) | 257 nM |  |  | 
CCCCNC(=O)C1=C[C@H](O)[C@H](O)[C@@H](O[C@@H](C(N)=O)[C@H]2O[C@@H](n3ccc(=O)[nH]c3=O)[C@H](O)[C@@H]2OC)O1 | 12.5 µg/mL (≈ 24.3 µM) | 544 nM |  |  | 
CO[C@H]1[C@@H](O)[C@H](n2ccc(=O)[nH]c2=O)O[C@@H]1[C@@H](O[C@H]1OC(C(=O)NCc2ccc3c(c2)OCO3)=C[C@H](O)[C@@H]1O)C(N)=O | 50 µg/mL (≈ 84.4 µM) | 338 nM |  |  | 
CO[C@H]1[C@@H](O)[C@H](n2ccc(=O)[nH]c2=O)O[C@@H]1[C@@H](O[C@H]1OC(C(=O)Nc2ccc(Cl)cc2)=C[C@H](O)[C@@H]1O)C(N)=O | 6.25 µg/mL (≈ 11 µM) | 31.6 nM | 4 µg/mL (≈ 7.03 µM) | 2 µg/mL (≈ 3.52 µM) | 16 µg/mL (≈ 28.1 µM)
CO[C@H]1[C@@H](O)[C@H](n2ccc(=O)[nH]c2=O)O[C@@H]1[C@@H](O[C@H]1OC(C(=O)Nc2cccc(C)c2)=C[C@H](O)[C@@H]1O)C(N)=O | 12.5 µg/mL (≈ 22.8 µM) | 13.9 nM | 4 µg/mL (≈ 7.29 µM) | 1 µg/mL (≈ 1.82 µM) | 8 µg/mL (≈ 14.6 µM)

SMILES | MIC [1] | IC50 [2] | MIC (Mycobacterium avium) | MIC [3] | MIC (Mycobacterium kansasii)
CO[C@H]1[C@@H](O)[C@H](n2ccc(=O)[nH]c2=O)O[C@@H]1[C@@H](O[C@H]1OC(C(=O)NCCc2ccccn2)=C[C@H](O)[C@@H]1O)C(N)=O | 25 µg/mL (≈ 44.4 µM) | 195 nM |  |  | 
COc1ccc(CNC(=O)C2=C[C@H](O)[C@H](O)[C@@H](O[C@@H](C(N)=O)[C@H]3O[C@@H](n4ccc(=O)[nH]c4=O)[C@H](O)[C@@H]3OC)O2)cc1 | 100 µg/mL (≈ 173 µM) | 1210 nM |  |  | 
CO[C@H]1[C@@H](O)[C@H](n2ccc(=O)[nH]c2=O)O[C@@H]1[C@@H](O[C@H]1OC(C(=O)N[C@H]2CCC[C@@H](C)NC2=O)=C[C@H](O)[C@@H]1O)C(N)=O | 6.25 µg/mL (≈ 10.7 µM) |  | 8 µg/mL (≈ 13.7 µM) | 4 µg/mL (≈ 6.85 µM) | 16 µg/mL (≈ 27.4 µM)
CO[C@H]1[C@@H](O)[C@H](n2ccc(=O)[nH]c2=O)O[C@@H]1[C@@H](O[C@H]1OC(C(=O)NCCc2ccccc2)=C[C@H](O)[C@@H]1O)C(N)=O | 12.5 µg/mL (≈ 22.2 µM) | 37.3 nM |  |  | 
CO[C@H]1[C@@H](O)[C@H](n2ccc(=O)[nH]c2=O)O[C@@H]1[C@@H](O[C@H]1OC(C(=O)Nc2cccc(F)c2)=C[C@H](O)[C@@H]1O)C(N)=O | 6.25 µg/mL (≈ 11.3 µM) |  | 2 µg/mL (≈ 3.62 µM) | 2 µg/mL (≈ 3.62 µM) | 8 µg/mL (≈ 14.5 µM)
CO[C@H]1[C@@H](O)[C@H](n2ccc(=O)[nH]c2=O)O[C@@H]1[C@@H](O[C@H]1OC(C(=O)NCc2ccccn2)=C[C@H](O)[C@@H]1O)C(N)=O | 100 µg/mL (≈ 182 µM) | 655 nM |  |  | 
CCOc1ccccc1NC(=O)C1=C[C@H](O)[C@H](O)[C@@H](O[C@@H](C(N)=O)[C@H]2O[C@@H](n3ccc(=O)[nH]c3=O)[C@H](O)[C@@H]2OC)O1 | 50 µg/mL (≈ 86.4 µM) | 64 nM |  |  | 
CO[C@H]1[C@@H](O)[C@H](n2ccc(=O)[nH]c2=O)O[C@@H]1[C@@H](O[C@H]1OC(C(=O)Nc2ccccc2)=C[C@H](O)[C@@H]1O)C(N)=O | 6.25 µg/mL (≈ 11.7 µM) |  | 16 µg/mL (≈ 29.9 µM) | 4 µg/mL (≈ 7.48 µM) | 8 µg/mL (≈ 15 µM)
CO[C@H]1[C@@H](O)[C@H](n2ccc(=O)[nH]c2=O)O[C@@H]1[C@@H](O[C@H]1OC(C(=O)Nc2ccc(C(C)C)cc2)=C[C@H](O)[C@@H]1O)C(N)=O | 25 µg/mL (≈ 43.4 µM) | 208 nM |  |  | 
CO[C@H]1[C@@H](O)[C@H](n2ccc(=O)[nH]c2=O)O[C@@H]1[C@@H](O[C@H]1OC(C(=O)NCc2ccc3ccccc3c2)=C[C@H](O)[C@@H]1O)C(N)=O | 25 µg/mL (≈ 41.8 µM) | 184 nM |  |  | 
COc1ccc(CCNC(=O)C2=C[C@H](O)[C@H](O)[C@@H](O[C@@H](C(N)=O)[C@H]3O[C@@H](n4ccc(=O)[nH]c4=O)[C@H](O)[C@@H]3OC)O2)cc1 | 25 µg/mL (≈ 42.2 µM) | 67.5 nM |  |  | 
CO[C@H]1[C@@H](O)[C@H](n2ccc(=O)[nH]c2=O)O[C@@H]1[C@@H](O[C@H]1OC(C(=O)Nc2ccc(F)c(F)c2)=C[C@H](O)[C@@H]1O)C(N)=O | 6.25 µg/mL (≈ 11 µM) |  | 2 µg/mL (≈ 3.51 µM) | 0.5 µg/mL (≈ 0.876 µM) | 8 µg/mL (≈ 14 µM)
CCCCN(C)C(=O)C1=C[C@H](O)[C@H](O)[C@@H](O[C@@H](C(N)=O)[C@H]2O[C@@H](n3ccc(=O)[nH]c3=O)[C@H](O)[C@@H]2OC)O1 | > 100 µg/mL | > 4730 nM |  |  | 
COC(=O)C1=C[C@H](O)[C@H](O)[C@@H](O[C@@H](C(N)=O)[C@H]2O[C@@H](n3ccc(=O)[nH]c3=O)[C@H](O)[C@@H]2OC)O1 | > 100 µg/mL | 57 nM |  |  | 
CO[C@H]1[C@@H](O)[C@H](n2ccc(=O)[nH]c2=O)O[C@@H]1[C@@H](O[C@H]1OC(C(=O)N[C@H]2CCCCNC2=O)=C[C@H](O)[C@@H]1O)C(N)=O [CAPURAMYCIN] | 12.5 µg/mL (≈ 21.9 µM) | 18 nM | 8 µg/mL (≈ 14 µM) | 8 µg/mL (≈ 14 µM) | 8 µg/mL (≈ 14 µM)
NNC(=O)c1ccncc1 [ISONIAZID] |  |  | 1 µg/mL (≈ 7.29 µM) | 8 µg/mL (≈ 58.3 µM) | 2 µg/mL (≈ 14.6 µM)
CO[C@H]1/C=C/O[C@@]2(C)Oc3c(C)c(O)c4c(O)c(c(/C=N/N5CCN(C)CC5)c(O)c4c3C2=O)NC(=O)/C(C)=C\C=C\[C@H](C)[C@H](O)[C@@H](C)[C@@H](O)[C@@H](C)[C@H](OC(C)=O)[C@@H]1C [RIFAMPIN] |  |  | 0.125 µg/mL (≈ 0.152 µM) | 0.125 µg/mL (≈ 0.152 µM) | 0.25 µg/mL (≈ 0.304 µM)
